Test [1] relates to Gastric acid secretion induced by histamine. Description: Inhibition effect on gastric acid secretion induced by histamine in pylorus ligated rat (subcutaneous). To be noted: histamine 3 mg/kg SC, average of five runs, * p<0.05, ** p<0.01 vs control group, read-out: Secretion of Gastric Acid in Rat, Inhibition Rate (%); for inhibition in vivo at 0.2 mg/kg: 0.2 mg/kg SC. The test is classed as in vivo, rat (male Wistar). Here is the method:
A male Wistar rat having a body weight of about 160 g and which had not fed for 24 hours was anesthetized by an intraperitonea dose of 1.2 g/kg of uretane. After ligating of pylorus and esophagus, the gaster anterior was incised and fitted with a double polyethylene cannula. The wall of the stomach was rinsed with 5 ml of saline at 30 minute intervals, and the quantities of gastric acid contained in each rinsing solution were measured by titration.
The basal acid secretion was initially measured three times, and then 0.2 mg/kg or 0.5 mg/kg of each of the compounds of this invention was administered subcutaneously and 3 mg/kg of histamine was administered subcutaneously after the lapse of an additional 30 minutes.
The quantity of gastric acid secreated after the operation was measured continuously for 3 hours. Within that measurement interval, three time points at which the increase in acid secretion reached a maximum level were selected, and the average quantity of gastric acid secreted at those time points was taken as the increase in acid secretion, which was compared with the increase in acid secretion of the control group to calculate the percent inhibition for secretion of gastric acid. [formula] (The result was shown as the average value of five runs.)

The target in a further test is T1, Histamine H2-Receptor (Cavia porcellus, UniProt P47747).
T1 construct: from tissue; host or cells: isolated atrium of male Hartley guinea pig
T1 sequence (P47747 whole entry): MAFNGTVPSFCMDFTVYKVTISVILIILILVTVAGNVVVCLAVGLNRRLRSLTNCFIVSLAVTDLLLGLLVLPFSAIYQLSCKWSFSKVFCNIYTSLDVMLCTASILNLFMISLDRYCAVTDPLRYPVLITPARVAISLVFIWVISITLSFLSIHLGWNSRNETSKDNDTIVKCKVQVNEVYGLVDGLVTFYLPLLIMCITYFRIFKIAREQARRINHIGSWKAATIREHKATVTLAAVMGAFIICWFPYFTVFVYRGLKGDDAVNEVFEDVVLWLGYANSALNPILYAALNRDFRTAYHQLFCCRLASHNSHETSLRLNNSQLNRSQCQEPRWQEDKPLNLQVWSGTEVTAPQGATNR
The arrangement: species or system guinea pig (male Hartley). Conditions: isolated guinea pig atrium; negative logarithm of molar concentration; heart beats, histamine dose-response; read-out: Antagonistic Action against Histamine H2-Receptor (pA2) Determined by Using Atrium isolated from Guinea Pig (converted). Here is the method:
A male Hartley guinea pig having a body weight of about 400 g was killed by cervical dislocation, and the artrium thereof was isolated and was suspended in an organ bath containing 50 ml of a modified Ringer solution and subjected to a tension of 1 g. The number of heart beats under such condition was recorded using a polygraph.
Initially, from 1×10^-7 mol to 3×10^-4 mol of histamine was allowed to act accumulatively to depict the curve of the dosage-reaction relationship. Likewise, the curve of the dosage of histamine-reaction relationship was depicted in the presence of 5×10^-7 mol to 1×10^-6 mol of the test sample which was injected 3 minutes before. The negative logarithm (pA2) of the molar concentration of the test sample required for moving the curve obtained by single administration of histamine parallel to the right side by a two-times concentration was calculated.

For test [2], the system named is Gastric acid secretion induced by histamine. Description: Inhibitory effect of intraduodenally administered compounds on gastric acid secretion induced by histamine in rat. The test is classed as in vivo, rat (male Wistar). Conditions: intraduodenal, rat; for ED50: 0.5 h, 30 minutes before SC histamine, read-out: Median effective dose (ED50), Gastric Acid Secretion; for Efficacy Ratio relative to Cimetidine (Cimetidine = 1): from ED50; for ED50 value: times as effective as Cimetidine (activity ratio): text discussing Table 2.

On to `C#CCNc1c(NC/C=C\COc2cccc(CN3CCCCC3)c2)c(=O)c1=O` [Ex. 4, 1-(2-propagylamino)-2-[4-<3-(1-piperidinomethyl)phenoxy>-cis-2-butenylamino]-1-cyclobuten-3,4-dione], for which the inhibition in vivo at 0.2 mg/kg in test [1] amounted to 66%. The Kb on Histamine H2-Receptor is 776 nM.
On to `Nc1c(NC/C=C/COc2cccc(CN3CCCCC3)c2)c(=O)c1=O` [Ex. 6, 1-amino-2-[4-<3-(1-piperidinomethyl)phenoxy>-trans-2-butenylamino]-1-cyclobuten-3,4-dione], for which, in test [1], the inhibition in vivo at 0.2 mg/kg came to 25%. Also, the Kb at Histamine H2-Receptor was 178 nM.
For `CNc1c(NC/C=C/COc2cccc(CN3CCCCC3)c2)c(=O)c1=O` [Ex. 7, 1-methylamino-2-[4-<3-(1-piperidinomethyl)phenoxy>-trans-2-butenylamino]-1-cyclobuten-3,4-dione], in test [1], the inhibition in vivo at 0.2 mg/kg came to 28%. For the same compound, the Kb on Histamine H2-Receptor was 513 nM.
Take `Nc1c(NC/C=C\COc2cccc(CN3CCCC3)c2)c(=O)c1=O` [Ex. 8, 1-amino-2-[4-<3-(1-pyrrolidinomethyl)phenoxy>-cis-2-butenylamino]-1-cyclobuten-3,4-dione]: the inhibition in vivo at 0.2 mg/kg in test [1] came out at 88%. Further, the Kb at Histamine H2-Receptor is 151 nM. In addition, in test [2], the ED50 (in general, the midpoint of the dose-response relation) came out at 0.07 mg/kg and the “Efficacy Ratio relative to Cimetidine (Cimetidine = 1)” value (“Efficacy Ratio relative to Cimetidine” for short) was determined as 10.3.
Taken in the same sequence, the figures for `Nc1n[nH]c(=O)nc1NC/C=C/COc1cccc(CN2CCCCC2)c1` [Ex. 11, 6-amino-5-[4-<3-(1-piperidinomethyl)phenoxy>-trans-2-butenylamino]-1,2,4-triazin-3-one] were 88%, 661 nM, 0.44 mg/kg and 16.4.
For `CNc1nn(C)c(=O)nc1NC/C=C/COc1cccc(CN2CCCCC2)c1` [Ex. 12, 2-methyl-6-methylamino-5-[4-<3-(1-piperidinomethyl)phenoxy>-trans-2-butenylamino]-1,2,4-triazin-3-one], the inhibition in vivo at 0.2 mg/kg in test [1] was determined as 44%. Further, the Kb at Histamine H2-Receptor is 1510 nM.
Taken in the same sequence, the figures for `Cn1c(NC/C=C/COc2cccc(CN3CCCCC3)c2)cc(N)nc1=O` [Ex. 14, 1-methyl-4-amino-6-[4-<3-(1-piperidinomethyl)phenoxy>-trans-2-butenylamino]-(1H)-pyrimidin-2-one] were -9% and 7080 nM.
Regarding `Nc1n[s+]([O-])nc1NC/C=C\COc1cccc(CN2CCCCC2)c1` (stereo not shown) [Ex. 15], the inhibition in vivo at 0.5 mg/kg in test [1] (0.5 mg/kg SC) turned out to be 98%. Further, on Histamine H2-Receptor, the Kb is 437 nM. Moreover, in test [2], the 50% effective dose (ED50) was determined as 0.066 mg/kg, the “Efficacy Ratio relative to Cimetidine” value is given as 109.1 and the “ED50 value: times as effective as Cimetidine (activity ratio)” value (“ED50 value: times … (activity ratio)” below) is given as around 110 times.
For `Nc1n[s+]([O-])nc1NC/C=C\COc1cccc(CN2CCCC2)c1` (stereo not drawn) [Ex. 17, 3-amino-4-[4-<3-(1-pyrrolidinomethyl)phenoxy>-cis-2-butenylamino]-1,2,5-thiadiazole-1-oxide], the inhibition in vivo at 0.2 mg/kg in test [1] came to 86%. At Histamine H2-Receptor, the Kb was 97.7 nM. Besides, in test [2], the ED50 is 0.82 mg/kg and the “Efficacy Ratio relative to Cimetidine” value is on record as 8.8.
`CC(C)Nc1n[s+]([O-])nc1NC/C=C\COc1cccc(CN2CCCCC2)c1` (stereo not drawn) [Ex. 19, 3-isopropylamino-4-[4-<3-(1-piperidinomethyl)phenoxy>-cis-2-butenylamino]-1,2,5-thiadiazole-1-oxide]: the inhibition in vivo at 0.2 mg/kg in test [1] is 82%. Moreover, the Kb at Histamine H2-Receptor was 2400 nM. In addition, in test [2], the ED50 came out at 0.88 mg/kg and the “Efficacy Ratio relative to Cimetidine” value is 8.2.
Taken in the same sequence, the figures for `CCCNc1n[s+]([O-])nc1NC/C=C\COc1cccc(CN2CCCCC2)c1` (stereo not drawn) [Ex. 20, 3-n-propylamino-4-[4-<3-(1-piperidinomethyl)phenoxy>-cis-2-butenylamino]-1,2,5-thiadiazol-1-oxide] were 88%, 389 nM, 0.58 mg/kg and 9.0.
Taken in the same sequence, the figures for `CN(C)Cc1cccc(OC/C=C\CNc2n[s+]([O-])nc2N)c1` (stereo not drawn) [Ex. 21, 3-<4-(3-dimethylaminomethylphenoxy)-cis-2-butenylamino>-4-amino-1,2,5-thiadiazole-1-oxide] were 99%, 229 nM, 2 mg/kg and 3.6.
The like results for `CNc1n[s+]([O-])nc1NC/C=C\COc1cccc(CN(C)C)c1` (stereo not drawn) [Ex. 22, 3-<4-(3-dimethylaminomethylphenoxy)-cis-2-butenylamino>-4-methylamino-1,2,5-thiadiazole-1-oxide] were, in that order, 88%, 316 nM, 0.62 mg/kg and 11.6.
Turning to `Nc1nnc(NC/C=C/COc2cccc(CN3CCCCC3)c2)s1` [Ex. 25, 2-amino-5-[4-<3-(1-piperidinomethyl)phenoxy>-trans-2-butenylamino]-1,3,4-thiadiazole], in test [1], the inhibition in vivo at 0.2 mg/kg turned out to be 77%. Besides, at Histamine H2-Receptor, the Kb is 204 nM.
Taken in the same sequence, the figures for `CNc1nnc(NC/C=C/COc2cccc(CN3CCCCC3)c2)s1` [Ex. 26, 2-methylamino-5-[4-<3-(1-piperidinomethyl)-phenoxy>-trans-2-butenylamino]-1,3,4-thiadiazole] were 45% and 9550 nM.
For the compound `Nc1nnc(NC/C=C\COc2cccc(CN3CCCCC3)c2)s1` [Ex. 27, 2-amino-5-[4-<3-(1-piperidinomethyl)-phenoxy>-cis-2-butenylamino]-1,3,4-thiadiazole], in test [1], the inhibition in vivo at 0.2 mg/kg amounted to 87%. Moreover, the Kb on Histamine H2-Receptor was 490 nM. For the same compound, in test [2], the ED50 amounted to 0.45 mg/kg and the “Efficacy Ratio relative to Cimetidine” value is recorded as 16.0.
With `Nc1nnc(NC/C=C\COc2cccc(CN3CCCC3)c2)s1` [Ex. 29, 2-amino-5-[4-<3-(1-pyrrolidinomethyl)-phenoxy>-cis-2-butenylamino]-1,3,4-thadiazole], in test [1], the inhibition in vivo at 0.2 mg/kg came out at 36%. For the same compound, at Histamine H2-Receptor, the Kb is 316 nM.
Regarding `CNc1nnc(NC/C=C\COc2cccc(CN3CCCC3)c2)s1` [Ex. 30, 2-methylamino-5-[4-<3-(1-pyrrolidinomethyl)-phenoxy>-cis-2-butenylamino]-1,3,4-thiadiazole], the inhibition in vivo at 0.2 mg/kg in test [1] was 17%. The Kb on Histamine H2-Receptor is 550 nM.
Take `NC1=NS(=O)(=O)N=C1NC/C=C\COc1cccc(CN2CCCCC2)c1` [Reference Ex. 1, 3-amino-4-[4-<3-(1-piperidinomethyl)phenoxy>-cis-2-butenylamino]-1,2,5-thiadiazole-1,1-dioxide, reference compound]: in test [2], the ED50 is 0.2 mg/kg, the “Efficacy Ratio relative to Cimetidine” value is listed as 36.0 and the “ED50 value: times … (activity ratio)” value was 36 times.
In the case of `CNC1=NS(=O)(=O)N=C1NC/C=C\COc1cccc(CN2CCCCC2)c1` [Reference Ex. 2, 3-methylamino-4-[4-<3-(1-piperidinomethyl)phenoxy>-cis-2-butenylamino]-1,2,5-thiadiazole-1,1-dioxide, reference compound], in test [2], the ED50 worked out at 0.44 mg/kg, the “Efficacy Ratio relative to Cimetidine” value is 16.4 and the “ED50 value: times … (activity ratio)” value came out at 16 times.

Source of the values: US4673747A, “Aminoalkylphenoxy derivatives” (Ikeda Mohando Co., Ltd., priority 1984, dated 1987).
